# Values joined by “and” are separate entries in the source; they are usually repeats but may differ in a detail not shown here. Equal entries are not always repeated.
# What was measured:
# human FUT8 [1] = biological target: T1, human FUT8 (Homo sapiens, UniProt Q9BYC5); assay: Isothermal titration calorimetry (ITC) of ligands binding to FUT8
# T1 construct: made in house
# T1 sequence (Q9BYC5 1-575): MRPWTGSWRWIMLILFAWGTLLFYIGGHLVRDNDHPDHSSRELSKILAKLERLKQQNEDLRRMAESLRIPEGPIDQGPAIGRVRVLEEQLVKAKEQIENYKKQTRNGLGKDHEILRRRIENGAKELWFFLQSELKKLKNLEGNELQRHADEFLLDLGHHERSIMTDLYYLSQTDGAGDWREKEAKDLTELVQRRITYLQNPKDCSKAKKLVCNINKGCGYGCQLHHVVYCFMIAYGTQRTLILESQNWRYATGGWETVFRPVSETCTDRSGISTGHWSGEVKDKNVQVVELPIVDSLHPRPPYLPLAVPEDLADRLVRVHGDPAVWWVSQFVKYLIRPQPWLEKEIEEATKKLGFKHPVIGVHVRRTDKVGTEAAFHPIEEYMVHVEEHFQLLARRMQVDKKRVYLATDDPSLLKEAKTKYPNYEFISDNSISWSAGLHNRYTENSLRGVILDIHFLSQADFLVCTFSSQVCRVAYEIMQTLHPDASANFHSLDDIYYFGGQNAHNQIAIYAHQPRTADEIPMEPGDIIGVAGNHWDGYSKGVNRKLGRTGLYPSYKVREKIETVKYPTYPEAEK
# Protocol: (§1) The human FUT8 was purified as previously described.[12]
# ITC was performed to characterize the interaction of FUT8 with GDP, G0, the G0-peptide, the M3N2-peptide, M3N2, and M5N2-Asn. All experiments were carried out in an Auto-iTC200 (Microcal, GE Healthcare) at 25 °C. The concentration of FUT8 was 70 μM and the ligand concentration ranged from 400 μM to 1 mM. The experiments used 25 mM Tris (pH 7.5) and 150 mM NaCl for the characterization of the binding of FUT8 against GDP and G0. To characterize the binding of FUT8 against all N-glycans in the presence of an excess of GDP, the conditions were 25 mM Tris (pH 7.5), 150 mM NaCl, and 1 mM GDP. The experiments were performed in duplicate. Data integration, correction, and analysis were carried out in Origin 7 (Microcal). The data were fitted to a one-site equilibrium-binding model.
# human FUT8 [2] = biological target: T1, human FUT8; assay: FUT8 enzyme kinetics, GDP-Glo luminescence assay; type: biochemical
# Protocol: as §1
# Enzyme kinetics for FUT8 were determined using GDP-Glo luminescence assays (Promega). Reactions contained 100 nM FUT8 in 25 mM Tris (pH 7.5), 150 mM NaCl, and 200 μM GDP-fucose in the presence of the ligands. The concentrations of G0, the G0-peptide, the M3N2-peptide, M3N2, and M5N2-Asn ranged from 5 μM to 1 mM. To determine the kinetic parameters for GDP-fucose, we used 100 nM FUT8 in 25 mM Tris (pH 7.5), 150 mM NaCl, and variable concentrations of GDP-fucose (from 5 to 500 μM) in the presence of 500 μM of G0. Reactions were incubated for 30 min at 37 °C and stopped using 5 μL of GDP-detection reagent at a 1:1 ratio in white and opaque 384-well plates. Then, the plates were incubated in the dark for 1 h at room temperature. Subsequently, the luminance values were obtained by using a Synergy HT plate reader (Biotek).
# To estimate the amount of GDP produced in the glycosyltransferase reaction, we created a GDP standard curve. The values were corrected for enzyme hydrolysis in the absence of the substrate acceptor and fitted to a nonlinear Michaelis–Menten equation in GraphPad Prism 6 software from which the Km, kcat, and Vmax along with their standard deviations were obtained. All the experiments were performed in duplicate.
# human FUT8 [3] = biological target: T1, human FUT8; assay: STD NMR of ligands with FUT8; type: binding; conditions: 20 μM FUT8, absence or presence of GDP (1 mM), 283 K
# Protocol: All experiments were performed at a temperature of 283 K using a Bruker AVANCE-III 800 MHz spectrometer with a 5 mm TXI triple resonance probe with z axis pulse field gradients (5 mm PATXI 1H-13C/15N/D Z-GRD). The ligands, M3N2, the M3N2-peptide, the G0-peptide, and the naked peptide, had their labile protons exchanged with deuterium by dissolving in D2O, freeze-drying for three times, and finally dissolving at 5 mM in D2O. M3N2-peptide, G0-peptide, and naked peptide ^1H-NMR and ^13C-NMR signals were assigned using ^1H-^13C HSQC (hsqcedetgp), ^1H-^13C HSQC-TOCSY (hsqcgpmlph), TOCSY (mlevph), COSY (cosygmpfqf), and HMBC (hmbcgplpndqf). 2D-NOESY experiments were carried out for M3N2 and the M3N2-peptide using the Bruker pulse program noesygpph with mixing times (d8) of 100, 150, 200, 250, 300, 400, 600, 800, 1000, and 1500 ms. The relaxation time was set to 1 s. Fourier transform was applied to both dimensions and the corresponding horizontal traces were extracted for H1B (4.47 ppm) and H5A (3.42 ppm) in the case of the M3N2-peptide. […] Average H1A-H5A and H1B-H5B distances were calculated from the 1 μs MD simulation and used for the calculation according to the equation in Figure S9c.
# STD NMR spectra were measured for the corresponding N-glycans in the presence of 20 μM FUT8 both with and without GDP (1 mM) using the Bruker pulse program stddiff.3. […]
# human FUT8 [4] = biological target: T1, human FUT8; assay: FUT8 substrate specificity by MALDI-TOF MS; type: biochemical; conditions: 18 μM FUT8, 18 h at RT (long incubation)
# Protocol: Solutions of the different N-glycan structures (1 nmol) were incubated with a FUT8 enzyme (18 μM) and GDP-fucose (2 nmol) in 25 mM Tris and 150 mM NaCl (pH 7.5) (total volume of 10 μL) for 18 h at RT. The reaction mixture was analyzed by MALDI-TOF mass spectrometry employing a solution of 2,5-dihydroxybenzoic acid (DHB, 5 mg/mL in CH3CN:0.1% TFA, 30:70, containing 0.05% NaCl) as a matrix. The MALDI-TOF spectra were recorded on an Ultraflextreme III time-of-flight mass spectrometer equipped with a pulsed Nd:YAG laser (355 nm) and controlled by FlexControl 3.3 software (Bruker Daltonics, Bremen, Germany). The m/z range was selected according to the mass of the sample and the acquired spectra were processed with FlexAnalysis 3.3 software (Bruker Daltonics, Bremen, Germany).
# CHO^KO:mgat1 = assay: Site-specific N-glycan analysis of recombinant glycoproteins produced in CHO^KO:mgat1; type: cell-based; conditions: for Man5-GlcNAc2-Fuc/total / Man5-GlcNAc2/total: total = sum of top five glycopeptide intensities by LC–MS
# [5] = biological target: human FUT8 (α-1,6-fucosyltransferase) (human) (UniProt Q9BYC5); assay: ITC; Auto-iTC200, 25 °C; FUT8 70 μM, ligand 400 μM to 1 mM; 25 mM Tris pH 7.5, 150 mM NaCl, 1 mM GDP (excess GDP); one-site model; duplicate
# [6] = excess GDP (1 mM), 25 °C, pH 7.5
# [7] = GDP titrated into FUT8, 25 °C, pH 7.5
# [8] = 100 nM FUT8, 37 °C, 30 min, acceptors with 200 μM GDP-fucose, GDP-Fuc with saturating G0 (500 μM)
compound,measurement,setting,value
CC(=O)N[C@@H]1[C@@H](O)[C@H](O[C@@H]2O[C@H](CO)[C@@H](O[C@@H]3O[C@H](CO[C@H]4O[C@H](CO)[C@@H](O)[C@H](O)[C@@H]4O[C@@H]4O[C@H](CO)[C@@H](O)[C@H](O)[C@H]4NC(C)=O)[C@@H](O)[C@H](O[C@H]4O[C@H](CO)[C@@H](O)[C@H](O)[C@@H]4O[C@@H]4O[C@H](CO)[C@@H](O)[C@H](O)[C@H]4NC(C)=O)[C@@H]3O)[C@H](O)[C@H]2NC(C)=O)[C@@H](CO)O[C@H]1NC(=O)C[C@H](NC(=O)[C@H](C)NC(=O)[C@@H](NC(=O)[C@@H](N)CCCCN)C(C)C)C(=O)N[C@@H](CCCCN)C(=O)N[C@H](C(=O)O)[C@@H](C)O [G0-peptide],Kd,human FUT8 [1]; [6],10 ± 4 µM
"Nc1nc2c(ncn2[C@@H]2O[C@H](COP(=O)(O)OP(=O)(O)O)[C@@H](O)[C@H]2O)c(=O)[nH]1 [GDP, reference compound]",Kd,human FUT8 [1]; [7],6.11 µM and 6.1 µM
same,n (stoichiometry of binding),human FUT8 [1]; [7],0.60
same,ΔG,human FUT8 [1]; [7],–7.09 ± 1.65 kcal/mol
same,ΔH,human FUT8 [1]; [7],–5.02 ± 0.4 kcal/mol
same,–TΔS,human FUT8 [1]; [7],–2.07 ± 0.48 kcal/mol
"C[C@@H]1O[C@H](OP(=O)(O)OP(=O)(O)OC[C@H]2O[C@@H](n3cnc4c(=O)[nH]c(N)nc43)[C@H](O)[C@@H]2O)[C@@H](O)[C@H](O)[C@@H]1O [GDP-Fuc, GDP-β-L-fucose]",Km,human FUT8 [2]; [8],14.6 ± 3.4 µM
same,Vmax,human FUT8 [2]; [8],244.3 ± 13.1 nmol·min^–1·mg^–1
same,kcat,human FUT8 [2]; [8],14.17 ± 0.76 min^–1
same,Catalytic efficiency of the transfer reaction relative to G0,human FUT8 [2]; GDP-Fuc more efficient than G0,~10 fold
"CC(=O)N[C@H]1[C@H](O[C@H]2[C@H](O)[C@@H](NC(C)=O)C(O)O[C@@H]2CO)O[C@H](CO)[C@@H](O[C@@H]2O[C@H](CO[C@H]3O[C@H](CO)[C@@H](O)[C@H](O)[C@@H]3O)[C@@H](O)[C@H](O[C@H]3O[C@H](CO)[C@@H](O)[C@H](O)[C@@H]3O)[C@@H]2O)[C@@H]1O (some centres unmarked) [M3N2, Man3GlcNAc2 N-glycan oligosaccharide]",STD NMR interaction with FUT8,human FUT8 [3],no STD NMR signals were observed
same,"Core fucosylation by FUT8, qualitative (MALDI-TOF MS)",human FUT8 [4],very poorly glycosylated
same,FUT8 activity against acceptor substrate,human FUT8 [2]; acceptor 5 μM to 1 mM,inactive
same,Binding to FUT8 by ITC,human FUT8 [1]; excess GDP (1 mM),could not determine a Kd
"CC(=O)N[C@@H]1[C@@H](O)[C@H](O[C@@H]2O[C@H](CO)[C@@H](O[C@@H]3O[C@H](CO[C@H]4O[C@H](CO)[C@@H](O)[C@H](O)[C@@H]4O)[C@@H](O)[C@H](O[C@H]4O[C@H](CO)[C@@H](O)[C@H](O)[C@@H]4O)[C@@H]3O)[C@H](O)[C@H]2NC(C)=O)[C@@H](CO)O[C@H]1NC(=O)C[C@H](NC(=O)[C@H](C)NC(=O)[C@@H](NC(=O)[C@@H](N)CCCCN)C(C)C)C(=O)N[C@@H](CCCCN)C(=O)N[C@H](C(=O)O)[C@@H](C)O [M3N2-peptide, Man3GlcNAc2 N-glycopeptide]",Kd,human FUT8 [1]; [6],406 ± 159 µM
"CC(=O)N[C@@H]1[C@@H](O)[C@H](O[C@@H]2O[C@H](CO)[C@@H](O[C@@H]3O[C@H](CO[C@H]4O[C@H](CO[C@H]5O[C@H](CO)[C@@H](O)[C@H](O)[C@@H]5O)[C@@H](O)[C@H](O[C@H]5O[C@H](CO)[C@@H](O)[C@H](O)[C@@H]5O)[C@@H]4O)[C@@H](O)[C@H](O[C@H]4O[C@H](CO)[C@@H](O)[C@H](O)[C@@H]4O)[C@@H]3O)[C@H](O)[C@H]2NC(C)=O)[C@@H](CO)O[C@H]1NC(=O)C[C@H](N)C(=O)O [M5N2-Asn, Man5GlcNAc2-Asn]","Initial velocity, fold worse than that of G0 and the G0-peptide",human FUT8 [2]; 1 mM acceptor substrate,~14 fold
same,Binding to FUT8 by ITC,human FUT8 [1]; excess GDP (1 mM),could not observe a binding titration profile
EPO: recombinant erythropoietin expressed in CHO cells,Man5-GlcNAc2-Fuc/total,CHO^KO:mgat1; EPO N-glycosite N51,0.48
same,Man5-GlcNAc2/total,CHO^KO:mgat1; EPO N-glycosite N51,0.52
same,Man5-GlcNAc2-Fuc/total,CHO^KO:mgat1; EPO N-glycosite N65,0.90
same,Man5-GlcNAc2/total,CHO^KO:mgat1; EPO N-glycosite N65,0.10
same,Man5-GlcNAc2-Fuc/total,CHO^KO:mgat1; EPO N-glycosite N110,0.67
same,Man5-GlcNAc2/total,CHO^KO:mgat1; EPO N-glycosite N110,0.33
same,Core fucosylation of high-mannose N-glycan in KO mgat1,CHO^KO:mgat1; N65 glycosite,almost exclusively core-fucosylated
same,Core fucosylation of high-mannose N-glycans in KO mgat1,CHO^KO:mgat1; all glycosites,acquired core Fuc to some degree
G0-peptide (KVANKT carrying the biantennary complex N-glycan G0 on Asn4),dH,[5],-3.2 kcal/mol
same,stoichiometry N,[5],0.84
"M3N2-peptide (Man3GlcNAc2 N-glycopeptide, KVANKT)",dH,[5],7.7 kcal/mol
same,stoichiometry N,[5],1.6

# From PMC9161449, “FUT8-Directed Core Fucosylation of N-glycans Is Regulated by the Glycan Structure and Protein Environment” (ACS Catalysis, 2021)
